Results: patent US20260327224A1, “SUBSTITUTED PYRIDOTRIAZOLE COMPOUND, AND PREPARATION METHOD THEREFOR AND USE THEREOF” (ORIGIANT PHARMACEUTICAL CO., LTD., priority 2023, published 2026)

Tested on: HT-29 cells (colon cancer cells)
Test: In vitro assay for protection of HT-29 cells from necroptosis (TNFα/Smac mimetic/Z-VAD-FMK, CCK-8)
Assay type: cell-based
Settings: Homo sapiens, Protective Activity Against Necroptosis, TNFα/Smac mimetic/Z-VAD-FMK induced, 24 h
Outline: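 Cells seeded overnight received compound in triplicate, then were induced with TNFα/Smac mimetic/Z-VAD-FMK for 24 h. Viability was read by CCK-8 absorbance at 495 nm after 1-3 h; protection rate normalized to solvent and medium-only controls, EC50 from fitted curve.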

Structure (SMILES)	EC50
Cn1cc(C(=O)N[C@@H](CF)c2ccc(F)cc2)c2cc(-c3ccn4nc(NC(=O)CCl)nc4c3)ccc21 [Compound 94]	< 1 nM
Cn1cc(C(=O)Nc2nc3cc(-c4ccc5c(c4)c(C(=O)N[C@H]4CCCc6ccc(F)cc64)cn5C)ccn3n2)cn1 [Compound 143]	1 to 10 nM
COC(C)C(=O)Nc1nc2cc(-c3ccc4c(c3)c(C(=O)N[C@@H](CF)c3ccc(F)cc3)cn4C)ccn2n1 (stereo partly shown) [Compound 112]	< 1 nM
Cn1cc(C(=O)N[C@@H](CF)c2ccc(F)cc2)c2cc(-c3ccn4nc(NC(=O)N5CCOCC5)nc4c3)ccc21 [Compound 103]	< 1 nM
Cn1cc(C(=O)N2CC(F)(F)CC2c2ccc(F)cc2)c2cc(-c3ccn4nc(NC(=O)C5CCOC5)nc4c3)ccc21 (stereo not shown) [Compound 159]	< 1 nM
Cn1cc(C(=O)Nc2nc3cc(-c4ccc5c(c4)c(C(=O)N[C@H]4CCc6ccc(F)cc64)cn5C)ccn3n2)cn1 [Compound 122]	100 to 1000 nM
C[C@H](NC(=O)c1cn(C)c2ccc(-c3ccn4nc(NC(=O)CN5CCOC[C@H]5C)nc4c3)cc12)c1ccc(F)cc1 [Compound 72]	< 1 nM
COC1CCN(CC(=O)Nc2nc3cc(-c4ccc5c(c4)c(C(=O)N[C@@H](C)c4ccc(F)cc4)cn5C)ccn3n2)CC1 [Compound 24]	< 1 nM
COCCOCCOCC(=O)Nc1nc2cc(-c3ccc4c(c3)c(C(=O)N[C@@H](C)c3ccc(F)cc3)cn4C)ccn2n1 [Compound 25]	< 1 nM
C[C@H](NC(=O)c1cn(C)c2ccc(-c3ccn4nc(NC(=O)CN5C[C@H]6C[C@@H]5CO6)nc4c3)cc12)c1ccc(F)cc1 [Compound 39]	< 1 nM
Cn1cc(C(=O)N[C@@H](CF)c2ccc(F)cc2)c2cc(-c3ccn4nc(NC(=O)C5CC5(F)F)nc4c3)ccc21 (stereo partly shown) [Compound 110]	< 1 nM
CC(C(=O)Nc1cn(C)c2ccc(-c3ccn4nc(NC(=O)[C@H]5CCCO5)nc4c3)cc12)c1ccc(F)cc1 (stereo partly shown) [Compound 178]	100 to 1000 nM
CC(c1ccc(F)cc1)n1cnc(-c2cn(C)c3ccc(-c4ccn5nc(NC(=O)c6cnn(C)c6)nc5c4)cc23)n1 (stereo not shown) [Compound 208]	100 to 1000 nM
CC(C)Nc1nc2cc(-c3ccc4c(c3)c(C(=O)N[C@@H](CF)c3ccc(F)cc3)cn4C)ccn2n1 [Compound 99]	< 1 nM
CN(C(=O)c1cn(C)c2ccc(-c3ccn4nc(NC(=O)C5CC5)nc4c3)cc12)[C@H]1CCc2cc(F)ccc21 [Compound 205]	1 to 10 nM
Cn1cc(C(=O)N2CCC[C@H]2c2ccc(F)cc2)c2cc(-c3ccn4nc(NC(=O)C5CCOC5)nc4c3)ccc21 (stereo partly shown) [Compound 186]	< 1 nM
C[C@H](NC(=O)c1cn(C)c2ccc(-c3ccn4nc(NC(=O)CN5CC6CCC(C5)O6)nc4c3)cc12)c1ccc(F)cc1 [Compound 71]	< 1 nM
C[C@H](NC(=O)c1cn(C)c2ccc(-c3ccn4nc(NC(=O)CN5CC(C)(C#N)C5)nc4c3)cc12)c1ccc(F)cc1 [Compound 29]	< 1 nM
C[C@H](NC(=O)c1cn(C)c2ccc(-c3ccn4nc(NC(=O)C(N)=O)nc4c3)cc12)c1ccc(F)cc1 [Compound 11]	1 to 10 nM
C[C@H](NC(=O)c1nn(C)c2ccc(-c3ccn4nc(NC(=O)C5CC5)nc4c3)cc12)c1ccc(F)cc1 [Compound 192]	< 1 nM
Cn1cc(C2=NC(c3ccc(F)cc3)CO2)c2cc(-c3ccn4nc(NC(=O)C5CC5F)nc4c3)ccc21 (stereo not shown) [Compound 211]	10 to 100 nM
C[C@H](NC(=O)c1cn(C)c2ccc(-c3ccn4nc(NC(=O)CN5CCCC(CO)C5)nc4c3)cc12)c1ccc(F)cc1 (stereo partly shown) [Compound 44]	1 to 10 nM
CC(=O)Nc1nc2cc(-c3ccc4c(c3)c(C(=O)N[C@H]3CCCc5ccc(F)cc53)cn4C)ccn2n1 [Compound 145]	1 to 10 nM
C[C@H](NC(=O)c1cn(C)c2ccc(-c3ccn4nc(NC(=O)CN5CCOCC5=O)nc4c3)cc12)c1ccc(F)cc1 [Compound 16]	10 to 100 nM
C[C@H](NC(=O)c1cn(C)c2ccc(-c3ccn4nc(NC(=O)CN5CC(F)(F)C5)nc4c3)cc12)c1ccc(F)cc1 [Compound 42]	< 1 nM
